Experimental data taken from ChEMBL document CHEMBL1125126, “Torsionally and hydrophobically modified 2,3-diarylindenes as estrogen receptor ligands” (J Med Chem, 1990).

Biological target: Estrogen receptor (Rattus norvegicus) (UniProt P06211+Q62986)
Assay: Displacement of [3H]estradiol from rat uterine estrogen receptor
Type: protein assay

Structure (SMILES) | RBA [%]
Oc1ccc(C2=C(c3ccccc3)Cc3cc(O)ccc32)c(F)c1 | 9.6
Cc1ccccc1C1=C(c2ccc(O)cc2)c2ccc(O)cc2C1 | 23
Oc1ccc2c(c1)CC(c1ccccc1)=C2c1ccccc1F | 12
Cc1ccc(C2=C(c3ccccc3)Cc3cc(O)ccc32)cc1 | 1.7
Cc1ccccc1C1=C(c2ccccc2)c2ccc(O)cc2C1 | 100
Oc1ccc2c(c1)CC(c1ccccc1F)=C2c1ccccc1 | 49
Cc1ccccc1C1=C(c2ccccc2)Cc2cc(O)ccc21 | 11
